Experimental data taken from patent US20180072997A1, “INHIBITORS OF HUMAN IMMUNODEFICIENCY VIRUS REPLICATION” (ViiV HEATHCARE UK (NO.5) LIMITED, priority 2015, published 2018).

Assays:
[1] = Compound cytotoxicity, XTT-based colorimetric assay; type: cell-based; details: human, uninfected MT2 cells, day 4, XTT
Procedure, shortened: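 Run under the antiviral-assay protocol but without virus. Viability was read on day 4 and CC50 values were derived from the readout.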

[2] = system: recombinant NL4-3 virus (Renilla luciferase in nef) in MT-2 cells; experiment: whole plant or invertebrate; type: cell-based, HIV; details: Renilla, NL43, MT-2 cells infected for 4-5 days with recombinant NL4-3 Renilla luciferase virus; luciferase activity
Procedure, shortened: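 MT-2 cells infected for 4-5 days with NL4-3 reporter virus (Renilla luciferase replacing part of nef, produced by transfection of 293T cells) in the presence of serial compound dilutions. Antiviral activity quantified by luciferase activity read with a live-cell substrate.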

SMILES	CC50 at 4 days [1] [nM]	EC50 [2] [nM]
COc1ccc(N(C)C(=O)[C@H](Cc2ccccc2)NC(=O)NS(=O)(=O)N[C@@H](Cc2ccccc2)C(=O)N(C)c2cc(OC)c(OC)c(OC)c2)cc1 [Example 17]	15900	12200
CN(C(=O)[C@H](Cc1ccccc1)Nc1nccc(-c2ccnc(N[C@@H](Cc3ccccc3)C(=O)N(C)c3ccc4scnc4c3)n2)n1)c1ccc2scnc2c1 [Example 135]	500	90
COc1ccc(N(C)C(=O)[C@H](Cc2ccccc2)NC(=O)CN2CCN(CC(=O)N[C@@H](Cc3ccccc3)C(=O)N(C)c3ccc(OC)cc3)C2=O)cc1 [Example 48]	30900	170
COc1ccc(N(C)C(=O)[C@H](Cc2ccccc2)NC(=O)c2cccc(C(=O)N[C@@H](Cc3ccccc3)C(=O)N(C)c3ccc(OC)cc3)c2)cc1 [Example 24]	4200	90
COc1ccc(N(C)C(=O)[C@H](Cc2ccccc2)NC(=O)Cn2c(=O)c3ccccc3n(CC(=O)N[C@@H](Cc3ccccc3)C(=O)N(C)c3ccc(OC)cc3)c2=O)cc1 [Example 100]	≥ 100000	70
Cc1nc2c(F)c(N(C)C(=O)[C@H](Cc3cc(F)cc(F)c3)NC(=O)NS(=O)(=O)N[C@@H](Cc3cc(F)cc(F)c3)C(=O)N(C)c3ccc4sc(C)nc4c3F)ccc2s1 [Example 239]	≥ 100000	860
CN(C(=O)[C@H](Cc1cc(F)cc(F)c1)NC(=O)NS(=O)(=O)N[C@@H](Cc1cc(F)cc(F)c1)C(=O)N(C)c1ccc2c(cnn2C)c1)c1ccc2c(cnn2C)c1 [Example 185]	96000	80
CN(C(=O)[C@H](Cc1cc(F)cc(F)c1)NC(=O)c1cccc(C(=O)N[C@@H](Cc2cc(F)cc(F)c2)C(=O)N(C)c2ccc3scnc3c2)c1Cl)c1ccc2scnc2c1 [Example 82]	≥ 100000	70
COc1ccc(N(C)C(=O)[C@H](Cc2ccccc2)NC(=O)c2cc(C(=O)N[C@@H](Cc3ccccc3)C(=O)N(C)c3ccc(OC)cc3)ncn2)cc1 [Example 112]	1300	1710
Cc1cc(N(C)C(=O)[C@H](Cc2ccccc2)NC(=O)NS(=O)(=O)N[C@@H](Cc2ccccc2)C(=O)N(C)c2ccc(F)c(C)c2)ccc1F [Example 229]	64700	2640
COc1ccc(N(C)C(=O)[C@H](Cc2cc(F)cc(F)c2)NC(=O)NS(=O)(=O)N[C@@H](Cc2cc(F)cc(F)c2)C(=O)N(C)c2ccc(OC)nc2)cn1 [Example 176]	≥ 100000	40
COc1ccc(N(C)C(=O)[C@H](Cc2ccccc2)NC(=O)/C=C/C(=O)N[C@@H](Cc2ccccc2)C(=O)N(C)c2ccc(OC)cc2)cc1 [Example 31]	3500	780
COc1ccc(N(C)C(=O)[C@H](Cc2ccccc2)NC(=O)CCCCC(=O)N[C@@H](Cc2ccccc2)C(=O)N(C)c2ccc(OC)cc2)cc1 [Example 23]	26900	1160
C=CCN(C(=O)[C@H](Cc1cc(F)cc(F)c1)NS(=O)(=O)c1ccccc1S(=O)(=O)N[C@@H](Cc1cc(F)cc(F)c1)C(=O)N(CC=C)c1ccc(OC)cc1)c1ccc(OC)cc1 [Example 193]	≥ 33300	1740
CN(C(=O)[C@H](Cc1ccccc1)NC(=O)CS(=O)(=O)N[C@@H](Cc1ccccc1)C(=O)N(C)c1ccc2scnc2c1)c1ccc2scnc2c1 [Example 65]	34600	320
COc1ccc(N(C)C(=O)[C@H](Cc2ccccc2)NC(=O)c2cccc(S(=O)(=O)N[C@@H](Cc3ccccc3)C(=O)N(C)c3ccc(OC)cc3)c2)cc1 [Example 108]	≥ 100000	720
COc1ccc(N(C)C(=O)[C@H](Cc2ccccc2)NC(=O)NS(=O)(=O)N[C@@H](Cc2ccc(F)cc2)C(=O)N(C)C)cc1 [Example 9]	≥ 100000	2670
COc1ccc(N(C)C(=O)[C@H](Cc2ccccc2)NC(=O)/C=C/CC(=O)N[C@@H](Cc2ccccc2)C(=O)N(C)c2ccc(OC)cc2)cc1 [Example 117]	30800	640
C=CCN(C(=O)[C@H](Cc1cc(F)cc(F)c1)NC(=O)NS(=O)(=O)N[C@@H](Cc1cc(F)cc(F)c1)C(=O)N(CC=C)c1ccc2scnc2c1)c1ccc2scnc2c1 [Example 140]	32700	100
CCN(C(=O)[C@H](Cc1cc(F)cc(F)c1)NC(=O)NS(=O)(=O)N[C@@H](Cc1cc(F)cc(F)c1)C(=O)N(CC)c1ccc2oc(=O)n(CC)c2c1)c1ccc2oc(=O)n(CC)c2c1 [Example 156]	≥ 50000	24700
Cc1cc(N(C)C(=O)[C@H](Cc2cc(F)cc(F)c2)NC(=O)NS(=O)(=O)N[C@@H](Cc2cc(F)cc(F)c2)C(=O)N(C)c2cnc(C)c(C)c2)cnc1C [Example 235]	≥ 100000	7000

SMILES	CC50 at 4 days [1] [nM]	EC50 [2] [nM]
COc1ccc(N(C)C(=O)[C@H](Cc2ccccc2)NC(=O)C(C)n2c(=O)n(C(C)C(=O)N[C@@H](Cc3ccccc3)C(=O)N(C)c3ccc(OC)cc3)c3ccccc32)cc1 (single isomer, unassigned) [Example 131]	6300	490
COc1ccc(N(C)C(=O)[C@H](Cc2ccccc2)NC(=O)CC(=O)N[C@@H](Cc2ccccc2)C(=O)N(C)c2ccc(OC)cc2)cc1 [Example 3]	70900	1940
COc1ccc(N(C)C(=O)[C@H](Cc2ccccc2)NC(=O)Cc2ccc(CC(=O)N[C@@H](Cc3ccccc3)C(=O)N(C)c3ccc(OC)cc3)cc2)cc1 [Example 47]	11100	2760
CN(C(=O)[C@H](Cc1cc(F)cc(F)c1)NC(=O)c1ccc(F)c(C(=O)N[C@@H](Cc2cc(F)cc(F)c2)C(=O)N(C)c2ccc(C3CC3)cc2)c1)c1ccc(C2CC2)cc1 [Example 230]	≥ 100000	20
COc1ccc(N(C)C(=O)[C@H](Cc2ccccc2)NC(=O)NS(=O)(=O)N[C@@H](Cc2ccccc2)C(=O)N(C)c2ccc(OC)cc2C)cc1 [Example 16]	≥ 33300	1720
COc1ccc(N(C)C(=O)[C@H](Cc2ccccc2)NC(=O)c2ccc(C(=O)N[C@@H](Cc3ccccc3)C(=O)N(C)c3ccc(OC)cc3)cc2)cc1 [Example 25]	3700	1130
COc1ccc(N(C)C(=O)[C@H](Cc2ccccc2)NC(=O)c2ccccc2-c2ccccc2C(=O)N[C@@H](Cc2ccccc2)C(=O)N(C)c2ccc(OC)cc2)cc1 [Example 79]	≥ 100000	1400
CN(C(=O)[C@H](Cc1cc(F)cc(F)c1)NC(=O)c1cccc(S(=O)(=O)N[C@@H](Cc2cc(F)cc(F)c2)C(=O)N(C)c2ccc3scnc3c2)c1)c1ccc2scnc2c1 [Example 107]	≥ 100000	300
COc1ccc(N(C)C(=O)[C@H](Cc2cc(F)cc(F)c2)NS(=O)(=O)CS(=O)(=O)N[C@@H](Cc2cc(F)cc(F)c2)C(=O)N(C)c2ccc(OC)cc2)cc1 [Example 201]	12500	480
COc1ccc(N(C)C(=O)[C@H](Cc2cc(F)cc(F)c2)NC(=O)COc2nc3ccccc3n(CC(=O)N[C@@H](Cc3cc(F)cc(F)c3)C(=O)N(C)c3ccc(OC)cc3)c2=O)cc1 [Example 96]	≥ 50000	120
CN(C(=O)[C@H](Cc1cc(F)cc(F)c1)NC(=O)c1cccc(C(=O)N[C@@H](Cc2cc(F)cc(F)c2)C(=O)N(C)c2ccc3scnc3c2)c1)c1ccc2scnc2c1 [Example 51]	≥ 100000	10
COc1ccc(N(C)C(=O)[C@H](Cc2ccccc2)NC(=O)CC2(CC(=O)N[C@@H](Cc3ccccc3)C(=O)N(C)c3ccc(OC)cc3)CCCC2)cc1 [Example 78]	≥ 50000	50000
COc1ccc(N(C)C(=O)[C@H](Cc2cc(F)cc(F)c2)NC(=O)NS(=O)(=O)N[C@@H](Cc2cc(F)cc(F)c2)C(=O)N(C)c2ccc(OC)cc2)cc1 [Example 20]	35000	10
COc1ccc(N(C)C(=O)[C@H](Cc2ccccc2)NC(=O)Cc2ccccc2CC(=O)N[C@@H](Cc2ccccc2)C(=O)N(C)c2ccc(OC)cc2)cc1 [Example 38]	45000	550
C=CCN(C(=O)[C@H](Cc1cc(F)cc(F)c1)NC(=O)c1ccccc1S(=O)(=O)N[C@@H](Cc1cc(F)cc(F)c1)C(=O)N(CC=C)c1ccc(OC)cc1)c1ccc(OC)cc1 [Example 210]	≥ 100000	10100
COc1ccc(N(C)C(=O)[C@H](Cc2cc(F)cc(F)c2)NC(=O)Cn2c(=O)n(CC(=O)N[C@@H](Cc3cc(F)cc(F)c3)C(=O)N(C)c3ccc(OC)cc3)c3c(Cl)cccc32)cc1 [Example 74]	11300	30
CN(C(=O)[C@H](Cc1ccccc1)NC(=O)NS(=O)(=O)N[C@@H](Cc1ccccc1)C(=O)N(C)c1ccc2c(c1)OCO2)c1ccc2c(c1)OCO2 [Example 19]	99500	170
COc1ccc(N(C)C(=O)[C@H](Cc2cc(F)cc(F)c2)NC(=O)Cn2c(=O)n(CC(=O)N[C@@H](Cc3cc(F)cc(F)c3)C(=O)N(C)c3ccc(OC)cc3)c3cc(F)ccc32)cc1 [Example 76]	11400	30
COc1ccc(N(C)C(=O)[C@H](Cc2ccccc2)NC(=O)c2cc(C(=O)O)cc(C(=O)N[C@@H](Cc3ccccc3)C(=O)N(C)c3ccc(OC)cc3)c2)cc1 [Example 55]	85800	10100
CCc1ccc(N(C)C(=O)[C@H](Cc2cc(F)cc(F)c2)NC(=O)NS(=O)(=O)N[C@@H](Cc2cc(F)cc(F)c2)C(=O)N(C)c2ccc(CC)nc2)cn1 [Example 180]	80100	30
CN(C(=O)[C@H](Cc1cc(F)cc(F)c1)NC(=O)NS(=O)(=O)N[C@@H](Cc1cc(F)cc(F)c1)C(=O)N(C)c1ccc2c(c1)OCCO2)c1ccc2c(c1)OCCO2 [Example 162]	43900	70
